Laboratory results as given in paper PMC10388327, “Dual Piperidine-Based Histamine H3 and Sigma-1 Receptor Ligands in the Treatment of Nociceptive and Neuropathic Pain” (Journal of Medicinal Chemistry, 2023).
Where a name gives a salt, the structure may show the parent alone. Read-outs that look alike come from different tables or passages of the source.

Assays:
[1] = biological target: T1, human recombinant histamine H3R (Homo sapiens, UniProt Q9Y5N1); assay: hH3R radioligand binding ([3H]Nα-methylhistamine depletion assay); conditions: read-out: hH3R Ki [nM] x̄ [CI 95%]; mean [CI 95%]; HEK-293 cells
T1 construct: expressed in transfected cells

mice [2] = assay: formalin test; format: in vivo; conditions: for ED50: Mus musculus, ip
From the text: The formalin test is one of the most useful screening models for testing potentially clinically relevant antinociceptive molecules because of its ease of administration, standardization, and validation with reference drugs.[50] The subcutaneous injection of formalin results in a focal injury that stimulates and then damages sensory endings. Two distinct phases of nociceptive response are associated with the immediate activation of nociceptors and sensitization of spinal reflex circuits during phase I and II responses, respectively.[51]
The procedure used was essentially the same as that described previously.[86],[87] Briefly, 20 μL of 1.5% formalin solution was injected intraplantarly (i.pl.) into the mice right hind paw using a 26-gauge needle. […] The total time (in seconds) spent on licking the injected paw during periods of 0–5 min (early phase, neurogenic) and 15–30 min (late phase, inflammatory) was measured and was considered as an indicator of nociceptive behavior. Before formalin injection, different groups of mice were treated i.p. with the vehicle (10 mL/kg, negative control) and the varying doses of 12 (5, 10, 15, and 30 mg/kg).

[3] = biological target: T2, human histamine H4 receptor (hH4R) (Homo sapiens, UniProt Q9H3N8); assay: hH4R radioligand binding ([3H]UR-PI294); conditions: read-out: hH4R (Ki [nM] x̅ [CI 95%]); HEK293T cells; n = 3, triplicate
T2 construct: SP (signal peptide) (N); FLAG (N); expressed in transfected cells
Procedure: (§1) To check the selectivity profile of our lead structures, radioligand binding studies at other histamine receptor subtypes were carried out. […] Obtained results clearly indicate the high selectivity of the tested derivatives toward human H3R (Table 3).
(§2) Compounds (as oxalate salts) were tested in H3R in vitro binding studies using the methods described previously.[21]−[23] […] Radioligand binding experiments at the H1R, H2R, and H4R were performed as previously described in Rosier et al.[65] and Bartole et al.[66] […] Data represent mean values ± CI from three independent experiments, each performed in triplicate. The normalized competition binding curves were then fitted with a four-parameter logistic fit yielding IC50 values using the Prism 8.4.3 software (GraphPad, San Diego, CA). The Ki values were estimated from the Cheng–Prusoff equation.[69]

mice [4] = assay: motor coordination in the rotarod test; format: in vivo; conditions: 15 mg/kg i.p.; 6, 18 and 24 rpm
From the text: The neurotoxicity of the new compounds can result in impaired motor functions of the experimental animals, which may subsequently cause false interpretation of the results of in vivo tests. Understandably, neurotoxicity is also the frequent reason for eliminating the tested compound from further studies. To minimize that risk, we investigated the influence of our lead structures on motor coordination in the rotarod test, which is the classical test used for assessing motor coordination and balance in rodents. It provides a quick and simple estimation of neuromuscular coordination. […] The time spent on the rotarod apparatus was 60 s for each control mouse.
The test was carried out on the semiautomatic rotarod apparatus (Rotarod apparatus Panlab/Harvard Apparatus, LE 8200, Spain) according to the method previously described in the literature.[85] The mice were trained for 3 days on the rod rotating at a constant speed of 18 rotations per minute (rpm). During each training session, the animals were placed on the rod for 3 min with an unlimited number of trials. On the test day (24 h after the final training trial), 30 min before the rotarod test, the mice were pretreated (i.p.) with the test compound (15 mg/kg). Then, the animals were tested on the rotarod revolving at 6, 18, and then 24 rpm. Motor impairments, defined as the inability to remain on the rotating rod for 1 min, were measured at each speed.

[5] = biological target: T3, human histamine H1 receptor (hH1R) (Homo sapiens, UniProt P35367); assay: hH1R radioligand binding ([3H]mepyramine); conditions: read-out: hH1R (Ki [nM] x̅ [CI 95%]); HEK293T cells; n = 3, triplicate
T3 construct: SP (signal peptide) (N); FLAG (N); expressed in transfected cells
Procedure: as §1, §2

mice [6] = assay: spontaneous locomotor activity; format: in vivo; conditions: 15 mg/kg i.p.
Procedure: The high sedative activity of analgesics is considered an undesirable property, which may lead to an incorrect or ambiguous interpretation of the in vivo results. Moreover, it may limit the potential clinical application of new drug candidates.
This test was carried out according to the procedure described elsewhere.[84] The animals were injected (i.p.) with 12 at doses of 5, 15, and 30 mg/kg and placed in the activity cages individually (30 min before the experiment). The number of light-beam crossings was counted in each group during the next 30 min in 10 min intervals.

[7] = parallel artificial membrane permeability assay (PAMPA); format: in vitro ADME; conditions: 100 μM in PBS pH 7.4, RT, read-out: Pe (permeability coefficient)
[8] = biological target: T4, human histamine H2 receptor (hH2R) (Homo sapiens, UniProt P25021); assay: hH2R radioligand binding ([3H]UR-DE257); conditions: HEK293T cells, n = 3, triplicate
T4 construct: SP (signal peptide) (N); FLAG (N); expressed in transfected cells
Procedure: as §1, §2

sigma-1 receptor (σ1R) [9] = assay: σ1R radioligand binding ([3H](+)-pentazocine); parameters: species or system guinea pig; conditions: ratio of σ2R Ki to σ1R Ki
sigma-1 receptor (σ1R) [10] = biological target: T5, sigma-1 receptor (σ1R) (Cavia porcellus, UniProt Q60492); assay: σ1R radioligand binding ([3H](+)-pentazocine); parameters: species or system guinea pig; conditions: read-out: σ1R Ki [nM] x̄ [CI 95%]; mean [CI 95%]
T5 construct: The thawed membrane preparation of the guinea pig brain cortex was incubated; from tissue; host or cells: male Dunkin-Hartley guinea pig brain cortex membranes

sigma-2 receptor (σ2R) = biological target: T6, sigma-2 receptor (σ2R) (Rattus norvegicus, UniProt Q5U3Y7); assay: σ2R radioligand binding ([3H]DTG); conditions: read-out: σ2R Ki [nM] x̄ [CI 95%]; mean [CI 95%]
T6 construct: The thawed membrane preparation of rat liver was incubated; from tissue; host or cells: Sprague-Dawley rat liver membranes
T6 sequence (Q5U3Y7 1-176): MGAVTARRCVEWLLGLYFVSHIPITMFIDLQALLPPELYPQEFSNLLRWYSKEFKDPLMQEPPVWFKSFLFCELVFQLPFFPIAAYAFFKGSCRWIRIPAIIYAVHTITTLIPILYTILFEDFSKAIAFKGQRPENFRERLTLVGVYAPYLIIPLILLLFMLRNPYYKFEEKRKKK

[11] = biological target: T1, human recombinant histamine H3R; conditions: read-out: hH3R Ki [nM] x̄ [CI 95%]; mean [CI 95%]; recalculated from published data; cited from earlier work
mice [12] = assay: loperamide-induced antinociception (paw pressure, struggle response latency); format: in vivo, Female CD1 mice
H3R = biological target: H3R; parameters: method as in PMID 30359639; conditions: Figure 1, compounds evaluated in clinical trials; cited from earlier work
[13] = pKa determination by potentiometric titration; format: physicochemical; conditions: for pKa: aqueous solution
Procedure: In addition, we tested the amino alcohol fragments of these compounds to carefully monitor the influence of individual protonated nitrogen atoms on the obtained pKa values (Figure 4). […] Based on a previously modified potentiometric procedure,[27],[28] a series of titrations were performed, and the pKa values were determined using the Kostrowicki and Liwo algorithm.[29],[30] […] That explains the surprising result of free base crystallization attempts where iodide salt was obtained instead of the neutral form. On the other hand, in the same environment, KSK94 exists in two forms: the monoprotonated form [HL^+] (20.56%) and the free ligand [L] (77.72%, Figure 5). […] KSK68 can be characterized as a basic ligand with pKa1 = 4.9 (pyridine N) and pKa2 = 8.4 (piperidine N). The pKa values are consistent with those determined by the same procedure for the corresponding amino alcohol 3-(4-(pyridin-4-yl)piperidin-1-yl)propan-1-ol (Figure 4). […] A similarly low pKa2 value for the N7 piperazine nitrogen atom was also determined for the corresponding amino alcohol 3-(4-(pyridin-4-yl)piperazin-1-yl)propan-1-ol (Figure 4), which is in agreement with the value obtained for 1-phenyl-4-methyl piperazine reported in the literature.[31] […] The lowest value was determined for 4-nitrophenyl, and the highest was for 2-methylphenyl derivatives.[32]
The potentiometric microtitration was performed in a thermostated 20 mL cell using a CerkoLab microtitration unit fitted with a pH electrode (Hydromet ERH-13-6). The electrode was calibrated with the use of buffer solutions: pH = 4.00, 7.00, and 10.00. Titrant T (0.1 M KOH) was standardized according to the general analytical procedure and protected from carbon dioxide. Double distilled water with a conductivity of about 0.18 mS/cm was used to prepare all aqueous solutions. DMSO (HPLC grade, 99.5%) was supplied by Sigma Aldrich. The concentration of the titrant solution (D) was 0.0025–0.005 M. The solubilization procedure was follows: The appropriate amount of KSK compound was dissolved in 1 mL 0.1 M HCl and 1 mL DMSO to prepare a 25 mL stock solution. The developed solubilization system can be recommended for poorly soluble derivatives. The analytical procedure was a follows: volume V0 = 4.5 mL of titrant D was titrated with 0.1 M titrant T using the CerkoLab System equipped with a 5 mL syringe pump.

[14] = observation during crystallization
[15] = 0–5 min after formalin, read-out: ED50, formalin test phase I (acute phase)
[16] = 15–30 min after formalin, read-out: ED50, formalin test phase II (late phase)
[17] = Figure 5, species distribution from titration curves
[18] = experimental, potentiometric titration

T5 sequence (Q60492 whole entry): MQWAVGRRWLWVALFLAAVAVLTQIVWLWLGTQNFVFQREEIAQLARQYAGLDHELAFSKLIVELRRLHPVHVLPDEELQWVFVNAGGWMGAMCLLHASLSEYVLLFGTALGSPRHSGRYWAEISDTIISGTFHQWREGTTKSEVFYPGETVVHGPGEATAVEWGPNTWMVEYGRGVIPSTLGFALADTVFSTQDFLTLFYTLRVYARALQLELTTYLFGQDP
T1 sequence (Q9Y5N1 whole entry): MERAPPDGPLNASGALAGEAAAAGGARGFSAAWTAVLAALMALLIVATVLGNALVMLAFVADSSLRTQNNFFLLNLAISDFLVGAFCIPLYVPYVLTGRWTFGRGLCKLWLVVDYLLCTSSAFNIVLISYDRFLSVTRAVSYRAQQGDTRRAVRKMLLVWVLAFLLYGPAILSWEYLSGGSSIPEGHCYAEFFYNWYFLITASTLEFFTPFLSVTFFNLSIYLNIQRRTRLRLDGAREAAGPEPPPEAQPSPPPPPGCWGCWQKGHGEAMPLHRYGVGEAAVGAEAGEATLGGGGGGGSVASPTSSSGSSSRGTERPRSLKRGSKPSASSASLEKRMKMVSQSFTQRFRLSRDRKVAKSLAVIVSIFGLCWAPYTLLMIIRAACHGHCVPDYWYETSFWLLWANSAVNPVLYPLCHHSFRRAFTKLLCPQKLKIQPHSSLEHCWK
T3 sequence (P35367 whole entry): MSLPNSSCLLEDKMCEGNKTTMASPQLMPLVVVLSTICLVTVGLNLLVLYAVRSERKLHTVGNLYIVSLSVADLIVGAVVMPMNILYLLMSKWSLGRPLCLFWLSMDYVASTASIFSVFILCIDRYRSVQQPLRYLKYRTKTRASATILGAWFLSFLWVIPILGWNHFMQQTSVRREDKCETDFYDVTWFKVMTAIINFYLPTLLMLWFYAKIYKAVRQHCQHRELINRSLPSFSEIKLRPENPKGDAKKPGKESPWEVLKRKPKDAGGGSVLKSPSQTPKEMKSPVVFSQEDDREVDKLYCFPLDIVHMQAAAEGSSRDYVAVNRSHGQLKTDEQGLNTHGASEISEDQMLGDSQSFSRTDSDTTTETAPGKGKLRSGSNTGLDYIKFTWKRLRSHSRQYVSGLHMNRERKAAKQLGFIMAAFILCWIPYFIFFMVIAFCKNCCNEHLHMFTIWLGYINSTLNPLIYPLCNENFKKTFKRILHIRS
T2 sequence (Q9H3N8 whole entry): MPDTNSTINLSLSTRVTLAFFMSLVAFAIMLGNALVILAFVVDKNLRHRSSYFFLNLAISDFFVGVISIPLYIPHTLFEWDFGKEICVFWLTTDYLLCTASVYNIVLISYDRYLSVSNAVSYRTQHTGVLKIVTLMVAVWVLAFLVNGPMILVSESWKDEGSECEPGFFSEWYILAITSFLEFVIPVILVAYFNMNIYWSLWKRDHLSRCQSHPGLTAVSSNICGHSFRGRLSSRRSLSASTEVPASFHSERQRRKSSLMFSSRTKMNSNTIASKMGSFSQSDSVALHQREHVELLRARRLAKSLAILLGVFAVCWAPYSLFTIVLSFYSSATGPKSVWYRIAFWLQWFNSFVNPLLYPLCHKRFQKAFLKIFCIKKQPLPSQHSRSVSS
T4 sequence (P25021 whole entry): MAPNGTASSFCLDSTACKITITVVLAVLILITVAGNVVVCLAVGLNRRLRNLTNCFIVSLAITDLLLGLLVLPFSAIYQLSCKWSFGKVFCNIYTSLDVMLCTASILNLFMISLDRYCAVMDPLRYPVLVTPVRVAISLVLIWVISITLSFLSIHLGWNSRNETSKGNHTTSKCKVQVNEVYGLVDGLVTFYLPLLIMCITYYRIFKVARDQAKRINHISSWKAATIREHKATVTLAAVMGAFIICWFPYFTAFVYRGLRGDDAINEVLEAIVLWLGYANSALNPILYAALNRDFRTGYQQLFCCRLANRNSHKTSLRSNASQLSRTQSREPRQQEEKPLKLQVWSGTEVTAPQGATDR

## c1ccc(-c2ccc(OCCCN3CCCCCC3)cc2)cc1 [Compound 3, 1-(3-([1,1′-Biphenyl]-4-yloxy)propyl)azepane Oxalate]
[1]
  Ki: 4.3 nM
Mice [2]; [15]
  ED50: 14.2 mg/kg
Mice [2]; [16]
  ED50: 13.3 mg/kg
[3]
  Ki: > 10000 nM
Mice [4]
  influence on motor coordination, time on rotarod: significantly impaired the motor coordination of mice
[5]
  Ki: 7620 nM
Mice [6]
  influence on spontaneous locomotor activity (sedative effect): high and significant sedative effects
[7]
  Papp at 5 h, 100 µM: 6.57 ×10⁻⁶ cm/s
[8]; read-out: hH2R (Ki [nM] x̅ [CI 95%])
  Ki: > 10000 nM
sigma-1 receptor (σ1R) [9]
  σ2/σ1 ratio: 13.2
sigma-1 receptor (σ1R) [10]
  Ki: 1.9 nM
sigma-2 receptor (σ2R)
  Ki: 25 nM

## c1ccc(Nc2ccc(OCCCN3CCCCC3)cc2)cc1 [Compound 7, N-Phenyl-4-(3-(piperidin-1-yl)propoxy)aniline Oxalate]
[1]
  Ki: 5.2 nM
Mice [2]; [15]
  ED50: 11.9 mg/kg
Mice [2]; [16]
  ED50: 11.7 mg/kg
Mice [2]; i.p., 0–5 min after formalin
  ED50, formalin test phase I (acute phase): 11.95 mg/kg
Mice [2]; i.p., 15–30 min after formalin
  ED50, formalin test phase II (late phase): 11.71 mg/kg
[3]
  Ki: > 10000 nM
Mice [4]
  influence on motor coordination, time on rotarod: significantly decreased the time spent on the rod at 18 and 24 rpm
[5]
  Ki: > 10000 nM
Mice [6]
  influence on spontaneous locomotor activity (sedative effect): high and significant sedative effects
[7]
  Papp at 5 h, 100 µM: 10.6 ×10⁻⁶ cm/s
[8]
  Ki: > 10000 nM
sigma-1 receptor (σ1R) [9]
  σ2/σ1 ratio: 24.2
sigma-1 receptor (σ1R) [10]
  Ki: 4.8 nM
sigma-2 receptor (σ2R)
  Ki: 116 nM

## c1ccc(-c2ccc(OCCCCCN3CCCCC3)cc2)cc1 [Compound 10, 1-(5-([1,1′-Biphenyl]-4-yloxy)pentyl)piperidine Oxalate]
sigma-1 receptor (σ1R) [10]
  Ki: 140 nM
sigma-2 receptor (σ2R)
  Ki: 19 nM
[11]
  Ki: 21.7 nM

## c1ccc(-c2ccc(OCCCCCCN3CCCCC3)cc2)cc1 [Compound 11, 1-(6-([1,1′-Biphenyl]-4-yloxy)hexyl)piperidine Oxalate]
sigma-1 receptor (σ1R) [10]
  Ki: 118 nM
sigma-2 receptor (σ2R)
  Ki: 46 nM
[11]
  Ki: 88.9 nM

## Cc1cc(OCCN2CCOCC2)nn1-c1ccc2ccccc2c1 [Compound S1RA, 4-[2-[[5-methyl-1-(2-naphthalenyl)1H-pyraol-3-yl]oxy]ethyl]morpholine hydrochloride]
Mice [12]; concluded from PRE-084 reversal
  in vivo σ1 receptor functional profile: σ1 receptor antagonists
Mice [12]; i.pl. with loperamide 4 mg/kg s.c., injected paw
  effect on loperamide-induced antinociception: significantly and dose-dependently (50–100 μg) increased the antinociceptive effect induced by loperamide
Mice [12]; i.pl., S1RA 100 μg, 12 25 μg, 450 g pressure
  effect alone on struggle response latency: did not change the response to the mechanical stimulus
H3R
  Ki: > 10000 nM
[7]
  Papp at 5 h, 100 µM: 5.26 ×10⁻⁶ cm/s

## c1cc(OCCCN2CCCCC2)ccc1CN1CCCCC1 [JNJ-5207852]
H3R
  Ki: 0.3 nM

## O=C(c1ccc(OCCCN2CCC(c3ccncc3)CC2)cc1)C1CC1 [KSK68]
[13]; [17]
  pK of equilibrium H2L+2 = H+ + HL+: 4.94
  pK of equilibrium HL+ = H+ + L0: 8.38
[13]; aqueous solution at physiological pH
  monoprotonated form [HL+]: approximately 90%
[13]; experimental, potentiometric titration, read-out: pKa1
  pKa: 4.9
[13]; experimental, potentiometric titration, read-out: pKa2
  pKa: 8.4
[13]; [18]
  pKa1: 4.94
  pKa2: 8.38
[14]
  solubility in water: more soluble in H2O than KSK67
